Earlier results on 1 molecule are cited in patent US20110105449A1, “DRY POWDER FORMULATIONS COMPRISING ASCORBIC ACID DERIVATES” (ASTRAZENECA R&D, priority 2007, published 2011).

Structures are written as SMILES. ≈ marks a conversion by molar mass, not a printed value.

For this series the following is noted: at 25° C.

Consider `CCCC1O[C@@H]2C[C@H]3[C@@H]4CCC5=CC(=O)C=C[C@]5(C)[C@H]4[C@@H](O)C[C@]3(C)[C@]2(C(=O)CO)O1` (stereo partly shown) [Budesonide, budesonide], for which the water solubility was 16 µg/mL (≈ 37.2 µM).
